Assay results from ChEMBL document CHEMBL4229455, “Synthesis and anticancer activity of novel bisindolylhydroxymaleimide derivatives with potent GSK-3 kinase inhibition” (Bioorg Med Chem, 2018).

How the values were obtained:
Format in all cases: functional
PC-3 = test: Cytotoxicity against human PC3 cells after 48 hrs by SRB assay; settings: PC-3, 48 h
UO-31 [1] = test: Cytotoxicity against human UO31 cells assessed as cell growth at 0.01 uM after 48 hrs by SRB assay relative to control; settings: UO-31, 48 h, read-out: Activity
NCI-H226 [2] = test: Cytotoxicity against human NCI-H226 cells assessed as cell growth at 100 uM after 48 hrs by SRB assay relative to control; settings: NCI-H226, 48 h, read-out: Activity
MDA-MB-468 = test: Cytotoxicity against human MDA-MB-468 cells assessed as cell growth at 1 uM after 48 hrs by SRB assay relative to control; settings: MDA-MB-468, 48 h, read-out: Activity
BT-549 [3] = test: Cytotoxicity against human BT549 cells assessed as cell growth at 1 uM after 48 hrs by SRB assay relative to control; settings: BT-549, 48 h, read-out: Activity
OVCAR-3 = test: Cytotoxicity against human OVCAR3 cells after 48 hrs by SRB assay; settings: OVCAR-3, 48 h
MOLT-4 [4] = test: Cytotoxicity against human MOLT4 cells assessed as cell growth at 1 uM after 48 hrs by SRB assay relative to control; settings: MOLT-4, 48 h, read-out: Activity
SR [5] = test: Cytotoxicity against human SR cells assessed as cell growth at 1 uM after 48 hrs by SRB assay relative to control; settings: read-out: Activity
T47D = test: Cytotoxicity against human T47D cells assessed as cell growth at 0.1 uM after 48 hrs by SRB assay relative to control; settings: read-out: Activity
COLO 205 [6] = test: Cytotoxicity against human COLO205 cells assessed as cell growth at 0.1 uM after 48 hrs by SRB assay relative to control; settings: COLO 205, 48 h, read-out: Activity
M14 = test: Cytotoxicity against human M14 cells assessed as cell growth at 100 uM after 48 hrs by SRB assay relative to control; settings: M14, 48 h, read-out: Activity
K562 = test: Cytotoxicity against human K562 cells assessed as cell growth at 100 uM after 48 hrs by SRB assay relative to control; settings: K562, 48 h, read-out: Activity
COLO 205 [7] = test: Cytotoxicity against human COLO205 cells assessed as cell growth at 100 uM after 48 hrs by SRB assay relative to control; settings: COLO 205, 48 h, read-out: Activity
HCT-116 [8] = test: Cytotoxicity against human HCT116 cells assessed as cell growth at 0.01 uM after 48 hrs by SRB assay relative to control; settings: HCT-116, 48 h, read-out: Activity
TK-10 = test: Cytotoxicity against human TK10 cells assessed as cell growth at 100 uM after 48 hrs by SRB assay relative to control; settings: TK-10, 48 h, read-out: Activity
SR [9] = test: Cytotoxicity against human SR cells assessed as cell growth at 0.01 uM after 48 hrs by SRB assay relative to control; settings: read-out: Activity
COLO 205 [10] = test: Cytotoxicity against human COLO205 cells assessed as cell growth at 1 uM after 48 hrs by SRB assay relative to control; settings: COLO 205, 48 h, read-out: Activity
HCT-15 = test: Cytotoxicity against human HCT15 cells assessed as cell growth at 0.01 uM after 48 hrs by SRB assay relative to control; settings: HCT-15, 48 h, read-out: Activity
SK-MEL-2 = test: Cytotoxicity against human SK-MEL-2 cells assessed as cell growth at 1 uM after 48 hrs by SRB assay relative to control; settings: SK-MEL-2, 48 h, read-out: Activity
BT-549 [11] = test: Cytotoxicity against human BT549 cells assessed as cell growth at 100 uM after 48 hrs by SRB assay relative to control; settings: BT-549, 48 h, read-out: Activity
HCC 2998 = test: Cytotoxicity against human HCC2998 cells assessed as cell growth at 0.01 uM after 48 hrs by SRB assay relative to control; settings: HCC 2998, 48 h, read-out: Activity
Hs-578T [12] = test: Cytotoxicity against human Hs 578T cells assessed as cell growth at 1 uM after 48 hrs by SRB assay relative to control; settings: read-out: Activity
MOLT-4 [13] = test: Cytotoxicity against human MOLT4 cells after 48 hrs by SRB assay; settings: MOLT-4, 48 h; for CC50: read-out: LC50 (the source's name)
HL-60(TB) = test: Cytotoxicity against human HL-60(TB) cells after 48 hrs by SRB assay; settings: HL-60, 48 h
MDA-MB-435 [14] = test: Cytotoxicity against human MDA-MB-435 cells assessed as cell growth at 100 uM after 48 hrs by SRB assay relative to control; settings: MDA-MB-435, 48 h, read-out: Activity
IGROV-1 = test: Cytotoxicity against human IGROV1 cells after 48 hrs by SRB assay; settings: IGROV-1, 48 h
SK-OV-3 = test: Cytotoxicity against human SKOV3 cells after 48 hrs by SRB assay; settings: SK-OV-3, 48 h
A549 = test: Cytotoxicity against human A549 cells assessed as cell growth at 100 uM after 48 hrs by SRB assay relative to control; settings: A549, 48 h, read-out: Activity
NCI-H226 [15] = test: Cytotoxicity against human NCI-H226 cells assessed as cell growth at 1 uM after 48 hrs by SRB assay relative to control; settings: NCI-H226, 48 h, read-out: Activity
OVCAR-8 = test: Cytotoxicity against human OVCAR8 cells assessed as cell growth at 1 uM after 48 hrs by SRB assay relative to control; settings: OVCAR-8, 48 h, read-out: Activity
NCI-H23 = test: Cytotoxicity against human NCI-H23 cells assessed as cell growth at 100 uM after 48 hrs by SRB assay relative to control; settings: NCI-H23, 48 h, read-out: Activity
MDA-MB-435 [16] = test: Cytotoxicity against human MDA-MB-435 cells assessed as cell growth at 0.1 uM after 48 hrs by SRB assay relative to control; settings: MDA-MB-435, 48 h, read-out: Activity
UO-31 [17] = test: Cytotoxicity against human UO31 cells assessed as cell growth at 100 uM after 48 hrs by SRB assay relative to control; settings: UO-31, 48 h, read-out: Activity
HCT-116 [18] = test: Cytotoxicity against human HCT116 cells assessed as cell growth at 0.1 uM after 48 hrs by SRB assay relative to control; settings: HCT-116, 48 h, read-out: Activity
Hs-578T [19] = test: Cytotoxicity against human Hs 578T cells assessed as cell growth at 0.01 uM after 48 hrs by SRB assay relative to control; settings: read-out: Activity
DU-145 = test: Cytotoxicity against human DU145 cells assessed as cell growth at 1 uM after 48 hrs by SRB assay relative to control; settings: DU-145, 48 h, read-out: Activity
SN12C = test: Cytotoxicity against human SN12C cells after 48 hrs by SRB assay; settings: for CC50: read-out: LC50 (the source's name)

Compound `N#CCCCCCn1cc(C2=C(c3cn(CCCCCC#N)c4ccccc34)C(=O)N(O)C2=O)c2ccccc21` has a GI50 (PC-3) of 3.92 µM, an LC50 (PC-3) of over 100 µM and a TGI (PC-3) of 74 µM. It also gave a growth at 0.01 µM (UO-31 [1]) of 97%, a growth at 100 µM (NCI-H226 [2]) of -8% and a growth at 1 µM (MDA-MB-468) of 106%. For the same compound, the growth at 1 µM (BT-549 [3]) was 89%, the GI50 (OVCAR-3) was 3.81 µM and the LC50 (OVCAR-3) was over 100 µM. For the same compound, the TGI (OVCAR-3) was 19 µM, the growth at 1 µM (MOLT-4 [4]) was 85% and the growth at 1 µM (SR [5]) was 114%. It also gave a growth at 0.1 µM (T47D) of 89%, a growth at 0.1 µM (COLO 205 [6]) of 93% and a growth at 100 µM (M14) of -25%. It also gave a growth at 100 µM (K562) of 3%, a growth at 100 µM (COLO 205 [7]) of -22% and a growth at 0.01 µM (HCT-116 [8]) of 102%. For the same compound, the growth at 100 µM (TK-10) was 12%, the growth at 0.01 µM (SR [9]) was 84% and the growth at 1 µM (COLO 205 [10]) was 97%. The growth at 0.01 µM (HCT-15) was 93%, the growth at 1 µM (SK-MEL-2) was 97% and the growth at 100 µM (BT-549 [11]) was -26%. The growth at 0.01 µM (HCC 2998) was 98%, the growth at 1 µM (Hs-578T [12]) was 88% and the GI50 (MOLT-4 [13]) was 2.93 µM. The TGI (MOLT-4 [13]) was over 100 µM, the CC50 (MOLT-4 [13]) was over 100 µM and the GI50 (HL-60(TB)) was 2.54 µM. For the same compound, the LC50 (HL-60(TB)) was over 100 µM, the TGI (HL-60(TB)) was 6.44 µM and the growth at 100 µM (MDA-MB-435 [14]) was -27%. The GI50 (IGROV-1) was 5.08 µM, the LC50 (concentration killing 50% of cells) (IGROV-1) was over 100 µM and the TGI (IGROV-1) was 70.8 µM. It also gave a GI50 (SK-OV-3) of 7.78 µM, an LC50 (SK-OV-3) of over 100 µM and a TGI (SK-OV-3) of over 100 µM. It also gave a growth at 100 µM (A549) of 5%, a growth at 1 µM (NCI-H226 [15]) of 89% and a growth at 1 µM (OVCAR-8) of 95%. The growth at 100 µM (NCI-H23) was 1%, the growth at 0.1 µM (MDA-MB-435 [16]) was 95% and the growth at 100 µM (UO-31 [17]) was -1%. It also gave a growth at 0.1 µM (HCT-116 [18]) of 97%, a growth at 0.01 µM (Hs-578T [19]) of 93% and a growth at 1 µM (DU-145) of 107%. For the same compound, the GI50 (SN12C) was 8.47 µM, the TGI (SN12C) was over 100 µM and the CC50 (SN12C) was over 100 µM.
In the case of `Cn1cc(C2=C(c3cn(C)c4ncccc34)C(=O)NC2=O)c2ccccc21`, the GI50 (PC-3) is reported as 3.72 µM, the TGI (PC-3) is reported as 52.9 µM and the growth at 0.01 µM (UO-31 [1]) is reported as 90%. It also gave a growth at 100 µM (NCI-H226 [2]) of -16%, a growth at 1 µM (MDA-MB-468) of 78% and a growth at 1 µM (BT-549 [3]) of 85%. The GI50 (OVCAR-3) was 4.49 µM, the TGI (OVCAR-3) was 36.8 µM and the growth at 1 µM (MOLT-4 [4]) was 101%. It also gave a growth at 1 µM (SR [5]) of 51%, a growth at 0.1 µM (T47D) of 100% and a growth at 0.1 µM (COLO 205 [6]) of 109%. The growth at 100 µM (M14) was -67%, the growth at 100 µM (K562) was 2% and the growth at 100 µM (COLO 205 [7]) was -65%. For the same compound, the growth at 0.01 µM (HCT-116 [8]) was 106%, the growth at 100 µM (TK-10) was -18% and the growth at 0.01 µM (SR [9]) was 89%. The growth at 1 µM (COLO 205 [10]) was 83%, the growth at 0.01 µM (HCT-15) was 100% and the growth at 1 µM (SK-MEL-2) was 111%. The growth at 100 µM (BT-549 [11]) was -30%, the growth at 0.01 µM (HCC 2998) was 103% and the growth at 1 µM (Hs-578T [12]) was 48%. For the same compound, the GI50 (MOLT-4 [13]) was 3.53 µM, the TGI (MOLT-4 [13]) was 17.7 µM and the CC50 (MOLT-4 [13]) was over 100 µM. The GI50 (HL-60(TB)) was 4.05 µM, the TGI (HL-60(TB)) was 17.9 µM and the growth at 100 µM (MDA-MB-435 [14]) was -35%. It also gave a GI50 (IGROV-1) of 4.1 µM, a TGI (IGROV-1) of 27.5 µM and a GI50 (SK-OV-3) of 2.09 µM. It also gave a TGI (SK-OV-3) of 8 µM, a growth at 100 µM (A549) of -19% and a growth at 1 µM (NCI-H226 [15]) of 86%. It also gave a growth at 1 µM (OVCAR-8) of 95%, a growth at 100 µM (NCI-H23) of -40% and a growth at 0.1 µM (MDA-MB-435 [16]) of 93%. It also gave a growth at 100 µM (UO-31 [17]) of -17%, a growth at 0.1 µM (HCT-116 [18]) of 107% and a growth at 0.01 µM (Hs-578T [19]) of 91%. It also gave a growth at 1 µM (DU-145) of 104%, a GI50 (SN12C) of 2.31 µM and a TGI (SN12C) of 16.2 µM. For the same compound, the CC50 (SN12C) was over 100 µM.
